Key:
Assay type in all cases: biochemical
[1] = test system: α-isomaltosyl-transferring enzyme from Bacillus globisporus C9; assay: Action on saccharides (substrates, TLC); set-up: key: −: there was found no substrate change before and after the enzymatic reaction; +: there were found both the reduction of substrate and the formation of cyclotetrasaccharide after the enzymatic reaction; conditions: 2 units/g substrate, 2% (w/v) substrate, 30° C., pH 6.0, 24 hours
From the text: (§1) To examine the saccharides in the supernatant, they were separated from the supernatant by silica gel thin-layer chromatography (abbreviated as “TLC” hereinafter) using, as a developer, a mixture solution of n-butanol, pyridine, and water (=6:4:1), and, as a thin-layer plate, “[…] 60”, an aluminum plate (20×20 cm) for TLC commercialized by […]. The coloration of both the separated total sugars by the sulfuric acid-methanol method and the reducing saccharides by the diphenylamine-aniline method detected a non-reducing saccharide at a position with an Rf value of about 0.31, which was positive on the former detection method but negative on the latter detection method.
(§2) It was tested whether saccharides can be used as substrates for the α-isomaltosyl-transferring enzyme. For the purpose, a solution of maltose, maltotriose, maltotetraose, maltopentaose, maltohexaose, maltoheptaose, isomaltose, isomaltotriose, panose, isomaltosylmaltose, isopanose, α,α-trehalose, kojibiose, nigerose, α,β-trehalose, cellobiose, gentibiose, maltitol, maltotriitol, lactose, sucrose, α-cyclodextrin, β-cyclodextrin, γ-cyclodextrin, soluble starch, pullulan, or dextran was prepared. To each of the above solutions was added two units/g substrate of a purified specimen of either α-isomaltosyl-transferring enzyme from Bacillus globisporus C9 obtained by the method in Experiment 4, Bacillus globisporus C11 obtained by the method in Experiment 7, Bacillus globisporus N75 obtained by the method in Experiment 11, or Arthrobacter ramosus S1 obtained by the method in Experiment 15, or a partially purified α-isomaltosyl-transferring enzyme from Arthrobacter globiformis A19 obtained by the method in Experiment 15. The resulting each solution was adjusted to give a substrate concentration of 2% (w/v) and incubated at 30° C. and pH 6.0 for 24 hours. The enzyme solutions before and after the enzymatic reactions were respectively analyzed on TLC as disclosed in Experiment 1 to confirm whether the enzymes acted on these substrates.

[2] = test system: α-isomaltosyl-transferring enzyme from Bacillus globisporus C11; assay: Action on saccharides (substrates, TLC); set-up: key: −: there was found no substrate change before and after the enzymatic reaction; +: there were found both the reduction of substrate and the formation of cyclotetrasaccharide after the enzymatic reaction; conditions: 2 units/g substrate, 2% (w/v) substrate, 30° C., pH 6.0, 24 hours
From the text: as §1, §2

[3] = test system: α-isomaltosyl-transferring enzyme from Arthrobacter globiformis A19; assay: Action on saccharides (substrates, TLC); set-up: key: −: there was found no substrate change before and after the enzymatic reaction; +: there were found both the reduction of substrate and the formation of cyclotetrasaccharide after the enzymatic reaction; conditions: partially purified enzyme, 2 units/g substrate, 2% (w/v) substrate, 30° C., pH 6.0, 24 hours
From the text: as §1, §2

[4] = test system: α-isomaltosyl-transferring enzyme from Arthrobacter ramosus S1; assay: Action on saccharides (substrates, TLC); set-up: key: −: there was found no substrate change before and after the enzymatic reaction; +: there were found both the reduction of substrate and the formation of cyclotetrasaccharide after the enzymatic reaction; conditions: 2 units/g substrate, 2% (w/v) substrate, 30° C., pH 6.0, 24 hours
From the text: as §1, §2

[5] = test system: α-isomaltosyl-transferring enzyme from Bacillus globisporus N75; assay: Action on saccharides (substrates, TLC); set-up: key: −: there was found no substrate change before and after the enzymatic reaction; +: there were found both the reduction of substrate and the formation of cyclotetrasaccharide after the enzymatic reaction; conditions: 2 units/g substrate, 2% (w/v) substrate, 30° C., pH 6.0, 24 hours
From the text: as §1, §2

[6] = test system: α-isomaltosyl-transferring enzyme from Bacillus globisporus C9; assay: Specificity to transferring acceptor; set-up: key: −: no saccharide transferred product was formed; ±: a saccharide-transferred product formed in an amount of less than one percent to the total sugars; +: a saccharide-transferred product was formed in an amount of over one percent but below 10% to the total sugars; ++: a saccharide-transferred product was formed in an amount of over 10% to the total sugars; conditions: panose as saccharide donor, 10 units/g substrate, 3.2% (w/v), 30° C., pH 6.0, 24 hours
Procedure: (§3) Saccharides were tested as follows to examine whether they can be used as transferring acceptors for the α-isomaltosyl-transferring enzyme of the present invention. A solution of D-glucose, D-xylose, L-xylose, D-galactose, D-fructose, D-mannose, D-arabinose, D-fucose, L-sorbose, L-rhamnose, methyl-α-glucoside (or methyl-α-glucopyranoside), methyl-β-glucoside (or methyl-β-glucopyranoside), N-acetyl-D-glucosamine, D-ribose, L-ribose, D-psicose, sorbitol, xylitol, mannitol, arabitol, ribitol, erythritol, maltose, maltotriose, maltotetraose, maltopentaose, isomaltose, isomaltotriose, α,α-trehalose, α,β-trehalose, kojibiose, nigerose, cellobiose, gentibiose, isopanose, maltitol, maltotriitol, lactose, sucrose, erlose, isomaltosylglucoside, α-cyclodextrin, β-cyclodextrin, γ-cyclodextrin, or L-ascorbic acid was prepared. To each solution was added panose as a saccharide donor to give an equal concentration, admixed with 10 units/g substrate of a purified specimen of either α-isomaltosyl-transferring enzyme from Bacillus globisporus C9 obtained by the method in Experiment 4, Bacillus globisporus C11 obtained by the method in Experiment 7, Bacillus globisporus N75 obtained by the method in Experiment 11, or Arthrobacter ramosus S1 obtained by the method in Experiment 15, or a partially purified specimen of α-isomaltosyl-transferring enzyme from Arthrobacter globiformis A19 obtained by the method in Experiment 18, followed by adjusting the saccharide concentration to 3.2% (w/v). The mixtures thus obtained were enzymatically reacted at 30° C. and Ph 6.0 for 24 hours. The saccharide composition of the resulting reaction mixtures were analyzed on gas chromatography (abbreviated as “GLC” hereinafter) for monosaccharides and disaccharides as testing saccharides, and on HPLC for tri- or higher-saccharides as testing saccharides to confirm whether these saccharides can be used as transferring acceptors for the above enzymes with an index of the positive or negative formation of a saccharide transferred product. In performing GLC, the following apparatuses and conditions were used: GLC apparatus, “GC-16A” commercialized by Shimadzu Corporation, Tokyo, Japan; column, a stainless-steel column, 3 mm in diameter and 2 m in length, packed with 2% “SILICONE OV-17/[…]”, commercialized by GL Sciences Inc., Tokyo, Japan; carrier gas, nitrogen gas at a flow rate of 40 ml/min under temperature conditions of increasing from 160° C. to 320° C. at an increasing temperature rate of 7.5° C./min; and detection, a hydrogen flame ionization detector. In the case of HPLC analysis, the apparatuses and conditions used were: HPLC apparatus, “CCPD” commercialized by Tosoh Corporation, Tokyo, Japan; column, “ODS-AQ-303” commercialized by YMC Co., Ltd., Tokyo, Japan; eluent, water at a flow rate of 0.5 ml/min; and detection, a differential refractometer.

[7] = test system: α-isomaltosyl-transferring enzyme from Bacillus globisporus C11; assay: Specificity to transferring acceptor; set-up: key: −: no saccharide transferred product was formed; ±: a saccharide-transferred product formed in an amount of less than one percent to the total sugars; +: a saccharide-transferred product was formed in an amount of over one percent but below 10% to the total sugars; ++: a saccharide-transferred product was formed in an amount of over 10% to the total sugars; conditions: panose as saccharide donor, 10 units/g substrate, 3.2% (w/v), 30° C., pH 6.0, 24 hours
Procedure: as §3

[8] = test system: α-isomaltosyl-transferring enzyme from Arthrobacter globiformis A19; assay: Specificity to transferring acceptor; set-up: key: −: no saccharide transferred product was formed; ±: a saccharide-transferred product formed in an amount of less than one percent to the total sugars; +: a saccharide-transferred product was formed in an amount of over one percent but below 10% to the total sugars; ++: a saccharide-transferred product was formed in an amount of over 10% to the total sugars; conditions: partially purified enzyme, panose as saccharide donor, 10 units/g substrate, 3.2% (w/v), 30° C., pH 6.0, 24 hours
Procedure: as §3

[9] = test system: α-isomaltosyl-transferring enzyme from Arthrobacter ramosus S1; assay: Specificity to transferring acceptor; set-up: key: −: no saccharide transferred product was formed; ±: a saccharide-transferred product formed in an amount of less than one percent to the total sugars; +: a saccharide-transferred product was formed in an amount of over one percent but below 10% to the total sugars; ++: a saccharide-transferred product was formed in an amount of over 10% to the total sugars; conditions: panose as saccharide donor, 10 units/g substrate, 3.2% (w/v), 30° C., pH 6.0, 24 hours
Procedure: as §3

[10] = test system: α-isomaltosyl-transferring enzyme from Bacillus globisporus N75; assay: Specificity to transferring acceptor; set-up: key: −: no saccharide transferred product was formed; ±: a saccharide-transferred product formed in an amount of less than one percent to the total sugars; +: a saccharide-transferred product was formed in an amount of over one percent but below 10% to the total sugars; ++: a saccharide-transferred product was formed in an amount of over 10% to the total sugars; conditions: panose as saccharide donor, 10 units/g substrate, 3.2% (w/v), 30° C., pH 6.0, 24 hours
Procedure: as §3

| Compound | Enzymatic action for forming cyclotetrasaccharide, Enzyme of Strain C9 [1] | Enzymatic action for forming cyclotetrasaccharide, Enzyme of Strain C11 [2] | Enzymatic action for forming cyclotetrasaccharide, Enzyme of Strain A19 [3] | Enzymatic action for forming cyclotetrasaccharide, Enzyme of Strain S1 [4] | Enzymatic action for forming cyclotetrasaccharide, Enzyme of Strain N75 [5] | Product of transferring reaction, Enzyme of Strain C9 [6] | Product of transferring reaction, Enzyme of Strain C11 [7] | Product of transferring reaction, Enzyme of Stain A19 [8] | Product of transferring reaction, Enzyme of Strain S1 [9] | Product of transferring reaction, Enzyme of Strain N75 [10] |
| --- | --- | --- | --- | --- | --- | --- | --- | --- | --- | --- |
| OC[C@H]1O[C@H](OC[C@H]2O[C@H](O[C@H]3[C@H](O)[C@@H](O)C(O)O[C@@H]3CO)[C@H](O)[C@@H](O)[C@@H]2O)[C@H](O)[C@@H](O)[C@@H]1O (stereo partly shown) [Panose, panose] | + | + | + | + | + |  |  |  |  |  |
| maltohexaose | − | − | − | − | − |  |  |  |  |  |
| maltoheptaose | − | − | − | − | − |  |  |  |  |  |
| O=C[C@H](O)[C@@H](O)[C@@H](O)[C@H](O)CO [D-Galactose, D-galactose] |  |  |  |  |  | − | − | ± (a saccharide-transferred product formed in an amount of less than one percent to the total sugars) | + (a saccharide-transferred product was formed in an amount of over one percent but below 10% to the total sugars) | − |
| OC[C@@H](O)C(O)[C@H](O)CO [Arabitol, arabitol] |  |  |  |  |  | − | − | − | ± (a saccharide-transferred product formed in an amount of less than one percent to the total sugars) | − |
| isomaltosylglucoside |  |  |  |  |  | ++ (a saccharide-transferred product was formed in an amount of over 10% to the total sugars) | ++ (a saccharide-transferred product was formed in an amount of over 10% to the total sugars) | ++ (a saccharide-transferred product was formed in an amount of over 10% to the total sugars) | ++ (a saccharide-transferred product was formed in an amount of over 10% to the total sugars) | ++ (a saccharide-transferred product was formed in an amount of over 10% to the total sugars) |
| CO[C@H]1O[C@H](CO)[C@@H](O)[C@H](O)[C@H]1O [Methyl-α-glucoside, methyl-α-glucoside] |  |  |  |  |  | ++ (a saccharide-transferred product was formed in an amount of over 10% to the total sugars) | ++ (a saccharide-transferred product was formed in an amount of over 10% to the total sugars) | ++ (a saccharide-transferred product was formed in an amount of over 10% to the total sugars) | ++ (a saccharide-transferred product was formed in an amount of over 10% to the total sugars) | ++ (a saccharide-transferred product was formed in an amount of over 10% to the total sugars) |
| OC[C@@H](O)[C@@H](O)[C@@H](O)CO [Ribitol, ribitol] |  |  |  |  |  | − | − | − | ± (a saccharide-transferred product formed in an amount of less than one percent to the total sugars) | − |
